Data: patent publication US9102636B2, “Analgesic compounds, compositions, and uses thereof” (Galleon Pharmaceuticals, Inc., priority 2010, dated 2015)
Several values for one entry are separate records, joined by “and”; a condition that tells them apart may be missing. Equal values may be shown once. Entries after “also recorded” stand apart in the source; their conditions may differ.

Tests used:
[1] = L-012 assay: inhibition of SIN-1 generated peroxynitrite induced luminescence/fluorescence of L-012; format: biochemical; conditions: 15 minute time point; average of three plates
Method: Luminol like compound “L-012” is a chemilumescent probe that is activated by the presence of a ROS and/or RNS such as peroxynitrite. In this assay L-012 was oxidized by the addition of 3-Morpholino-sydnonimine (“SIN-1”), a known peroxynitrite generator. The emitted fluorescence was directly proportional to the concentration of SIN-1. The compounds of the invention were then assessed for their ability to scavenge peroxynitrite by blocking the increase of peroxynitrite induced fluorescence. Concentrations of compound producing 50% inhibition of the fluorescence signal (IC50 values) were calculated by testing the compounds of the invention at various concentrations and averaging the IC50 of three plates.
The following solutions were added to white polystyrene, non-sterile 96-well plate (Costar #3912): 196 μL of 50 μM L-012; 2 μL of the test compound; and 24 μL of 500 mM SIN-1. Fresh stock of 50 μM L-012 in PBS pH 7.4 was made for each 96 well plate that was analyzed. The plates were read in a FlexStation3 (Molecular Devices) using the luminescent mode at 37° C. for 30 min, with a measurement every 30 seconds and an integration time of 100 msec.
Luminescence signal was recorded by the FlexStation3 kinetically at 37° C. for 30 minutes, with a measurement every 30 seconds and an integration time of 100 msec. The data in rows A and H were dropped from each plate to exclude the possibility of an ‘edge effect’. Thus, each test compound had 3 replicates per plate.

[2] = test system: capsaicin-mediated hyperalgesia; assay: Capsaicin-induced hyperalgesia; format: in vivo; conditions: rat; IV prior to intra-plantar capsaicin; FIG. 8
[3] = test system: hyperalgesia caused by SIN-1; assay: Hyperalgesia caused by SIN-1; format: in vivo; conditions: rat; IV 15 minutes before first SIN-1 (1 mg/kg); FIG. 11
Method: Vehicle or compound 2 was given IV 15 minutes before the first administration of SIN-1 (1 mg/kg).

[4] = test system: FCA induced edema; assay: FCA induced edema (paw volume); format: in vivo, rat
Method: Compound 2 was evaluated in the rat Freund's complete adjuvant (FCA) model of inflammatory pain. The rat Freund's complete adjuvant (FCA) intraplantar model of inflammatory pain produces behaviors similar to those observed in patients and has been widely used to assess novel pharmacological treatments (Lam et al., 2008, J Ethnopharmacol. 120:44-50). The positive control was celecoxib (TRC, Montreal), and the negative control was vehicle (0.5% methyl cellulose, in phosphate buffered saline). […] The Hargreaves apparatus was obtained from Ugo Basile, Italy. The Freund's complete adjuvant was obtained from Sigma, St. Louis, and the electronic von frey was obtained from Stoelting, Ill. For this assay, paw withdrawal latency to a thermal stimulus was assessed using a radiant heat source (Ugo Basile, Italy) aimed at the plantar surface of the left hind paw (Hargreaves test; […] Paw withdrawal thresholds to a non-noxious tactile stimulus was assessed using an electronic von Frey apparatus that presented an increasing mechanical force to the plantar surface of the hind paw. Paw volume was measured by displacement of water and assuming a tissue density equal to that of water. […] Celecoxib (30 mg/kg p.o.) served as the positive control. […] After induction of anesthesia, the injection site was prepared in a sterile manner and 100 μl of a 50% suspension of FCA injected. After injection, animals were weighed and allowed to recover before being returned to their home cages. Statistical significance was determined on untransformed data using a two-way analysis of variance (Graphpad Prism, NC). Significant main effects were analyzed further by subsequent Bonferronni post-hoc test. The level of significance was set at p<0.05. Data are shown as mean±S.E.M. (with an asterisk to denote significance as compared to vehicle treated controls).

[5] = test system: spinal nerve ligation induced tactile allodynia; assay: Spinal nerve ligation (SNL, Chung model) induced tactile allodynia (von Frey filaments); format: in vivo, rat; conditions: for Paw threshold / Paw withdrawal threshold: individual animals; for Paw withdrawal threshold: non-fasted
[6] = Oral pharmacokinetics (Tmax) in rats; conditions: rat, in vivo, given orally
[7] = test system: Carrageenan-induced thermal hyperalgesia; assay: Carrageenan-induced thermal hyperalgesia (Hargreaves); format: in vivo, rat; conditions: for Paw withdrawal latency: cut-off 40 s, individual animals

CC1(C)SC(Nc2ccccc2O)=N[C@@H]1C(=O)O [Compound 2, (R)-2-(2-hydroxyphenylamino)-thiazoline-5,5-dimethyl-4-carboxylic acid]
IC50 [1]: 130 nM
effect on capsaicin-mediated hyperalgesia [2]: inhibits capsaicin-mediated hyperalgesia
hyperalgesia caused by SIN-1 [3]: inhibits hyperalgesia caused by SIN-1
Paw volume ([4]; 24 hrs post, compound 2 10 mg/kg p.o. preemptive, FIG. 20A, 10 mg/kg): 2.7 mL and 2.6 mL and 3.1 mL
Paw volume ([4]; 24 hrs post, compound 2 30 mg/kg p.o. preemptive, FIG. 20A, 30 mg/kg): 2.1 mL and 2.9 mL and 3 mL
Paw volume ([4]; 48 hrs post, compound 2 10 mg/kg p.o. preemptive, FIG. 20A, 10 mg/kg): 2.6 mL and 2.5 mL and 2.9 mL and 3.2 mL
Paw volume ([4]; 48 hrs post, compound 2 30 mg/kg p.o. preemptive, FIG. 20A, 30 mg/kg): 2.5 mL and 2.8 mL and 3.1 mL and 2.7 mL and 2.9 mL
Paw volume ([4]; FCA/Compound 2, 10 mg/kg p.o., dosed 24 hours post-FCA, Pre-FCA (baseline), individual animals): 1.7 mL (2×) and 1.6 mL (2×) and 1.8 mL (3×) and 1.5 mL
Paw volume ([4]; FCA/Compound 2, 10 mg/kg p.o., 1 hr (D2), individual animals): 2.7 mL (3×) and 2.9 mL and 2.5 mL and 2.8 mL and 2.3 mL and 3.2 mL
Paw volume ([4]; FCA/Compound 2, 10 mg/kg p.o., 1 hr, individual animals): 2.9 mL (2×) and 3.1 mL (2×) and 2.7 mL (2×) and 2.8 mL and 3 mL
Paw volume ([4]; FCA/Compound 2, 10 mg/kg p.o., 3 hrs (D2), individual animals): 2.7 mL (2×) and 3 mL and 2.6 mL and 2.5 mL and 2.8 mL and 2.4 mL and 3.2 mL
Paw volume ([4]; FCA/Compound 2, 10 mg/kg p.o., 3 hrs, individual animals): 2.9 mL (4×) and 3.1 mL and 2.7 mL and 2.4 mL and 3.2 mL
Paw volume ([4]; FCA/Compound 2, 10 mg/kg p.o., Pre-Drug (D2), individual animals): 2.7 mL (2×) and 3 mL and 2.6 mL (2×) and 2.8 mL and 2.4 mL and 3.2 mL
Paw volume ([4]; FCA/Compound 2, 10 mg/kg p.o., Pre-Drug, individual animals): 3.1 mL (2×) and 2.8 mL (2×) and 2.9 mL and 3 mL and 2.7 mL and 3.4 mL
Paw volume ([4]; FCA/Compound 2, 30 mg/kg p.o., dosed 24 hours post-FCA, Pre-FCA (baseline), individual animals): 1.7 mL (4×) and 1.8 mL (2×) and 1.5 mL and 1.9 mL
Paw volume ([4]; FCA/Compound 2, 30 mg/kg p.o., 1 hr, individual animals): 2.6 mL
Paw volume ([4]; FCA/Compound 2, 30 mg/kg p.o., Pre-Drug, individual animals): 2.8 mL (2×) and 3 mL (2×) and 2.9 mL and 3.2 mL and 2.6 mL and 3.4 mL
Paw volume ([4]; Pre-FCA, compound 2 10 mg/kg p.o. preemptive group, individual rats, FIG. 20A, 10 mg/kg): 1.7 mL (2×) and 1.6 mL and 1.8 mL (2×) and 1.9 mL
Paw volume ([4]; Pre-FCA, compound 2 30 mg/kg p.o. preemptive group, individual rats, FIG. 20A, 30 mg/kg): 1.6 mL and 1.7 mL (2×) and 1.9 mL and 1.8 mL (2×)
FCA-induced edema (finding in words) ([4]; rat, 10 and 30 mg/kg p.o., preemptive and curative (24 hours post-FCA)): did not have a statistically significant effect; also recorded: did not affect edema
Paw threshold ([5]; FIG. 25, compound 2 30 mg/kg p.o. once on the day of surgery, 1 wk, 30 mg/kg): 1.85 g and 1.18 g and 2.81 g and 4.47 g and 6.4 g and 2.2 g and 15 g and 4.25 g
Paw threshold ([5]; FIG. 25, compound 2 30 mg/kg p.o. once on the day of surgery, 2 wks, 30 mg/kg): 1.65 g and 2.81 g and 2 g (2×) and 3.73 g and 0.99 g and 5.56 g and 5.04 g
Paw threshold ([5]; FIG. 25, compound 2 30 mg/kg p.o. once on the day of surgery, Pre-Sx): 15 g
Paw threshold ([5]; FIG. 26, compound 2 30 mg/kg p.o. QD on days 1-5 post-surgery, 1 wk, 30 mg/kg): 15 g (4×) and 11.41 g and 3.13 g and 1.18 g and 6.66 g
Paw threshold ([5]; FIG. 26, compound 2 30 mg/kg p.o. QD on days 1-5 post-surgery, 2 wks, 30 mg/kg): 13.96 g (2×) and 4.25 g and 5.37 g and 11.69 g and 2.8 g and 8.44 g and 7.94 g
Paw threshold ([5]; FIG. 26, compound 2 30 mg/kg p.o. QD on days 1-5 post-surgery, 3 wks, 30 mg/kg): 7.53 g and 6.64 g and 4.98 g and 2.2 g and 4.4 g and 2.38 g and 10.31 g and 15 g
Paw threshold ([5]; FIG. 26, compound 2 30 mg/kg p.o. QD on days 1-5 post-surgery, Pre-Sx, 30 mg/kg): 15 g (7×) and 11.69 g
Paw withdrawal threshold ([5]; compound 2 10 mg/kg p.o., 1 hr (D1), 10 mg/kg): 1.56 g and 4.98 g and 4.25 g (2×) and 15 g and 3.13 g and 2.81 g and 4.4 g
Paw withdrawal threshold ([5]; compound 2 10 mg/kg p.o., 1 hr (D2), 10 mg/kg): 1.31 g and 1.85 g (3×) and 2.38 g and 2.64 g and 1.65 g and 1.4 g
Paw withdrawal threshold ([5]; compound 2 10 mg/kg p.o., 1 hr (D3), 10 mg/kg): 0.44 g and 3.67 g and 1.85 g and 7.94 g and 3.33 g and 2 g and 2.81 g and 4.4 g
Paw withdrawal threshold ([5]; compound 2 10 mg/kg p.o., 3 hrs (D1), 10 mg/kg): 2 g and 7.94 g and 1.4 g and 15 g and 2.81 g and 2.64 g and 1.85 g and 3.57 g
Paw withdrawal threshold ([5]; compound 2 10 mg/kg p.o., 3 hrs (D2), 10 mg/kg): 0.4 g and 1.56 g (2×) and 11.69 g and 2.81 g and 2.37 g and 2 g and 3.71 g
Paw withdrawal threshold ([5]; compound 2 10 mg/kg p.o., 3 hrs (D3), 10 mg/kg): 0.99 g and 2.37 g and 1.56 g and 2.38 g and 2.81 g (2×) and 0.65 g and 3.33 g
Paw withdrawal threshold ([5]; compound 2 10 mg/kg p.o., Pre-Drug, 10 mg/kg): 2.2 g and 3.13 g (2×) and 4.25 g and 3.58 g and 3.73 g and 4.4 g and 2.64 g
Paw withdrawal threshold ([5]; compound 2 10 mg/kg p.o., Pre-Sx, 10 mg/kg): 11.69 g and 15 g (7×)
Paw withdrawal threshold ([5]; compound 2 50 mg/kg p.o., 1 hr (D1), 50 mg/kg): 2.81 g (2×) and 6.64 g and 5.56 g (2×) and 3.67 g and 4.23 g and 4.98 g
Paw withdrawal threshold ([5]; compound 2 50 mg/kg p.o., 1 hr (D2), 50 mg/kg): 1.19 g and 2.81 g and 3.12 g and 7.94 g
Paw withdrawal threshold ([5]; compound 2 50 mg/kg p.o., 3 hrs (D1), 50 mg/kg): 1.18 g and 3.13 g (2×) and 3.33 g and 6.66 g (2×) and 6.64 g and 4.7 g
Paw withdrawal threshold ([5]; compound 2 50 mg/kg p.o., Pre-Drug, 50 mg/kg): 2.81 g (2×) and 3.33 g and 3.73 g and 2.2 g and 5.04 g and 4.25 g and 3.58 g
Paw withdrawal threshold ([5]; compound 2 50 mg/kg p.o., Pre-Sx): 15 g
development of SNL tactile allodynia, single administration ([5]; rat, 30 mg/kg p.o. immediately following surgery, assessed 1 and 2 weeks later, FIG. 25): a significant difference between treated animals and vehicle controls was not noted
development of SNL tactile allodynia, repeated administration ([5]; rat, 30 mg/kg p.o. once a day for 5 days starting on day of surgery, 1, 2 and 3 weeks post surgery, FIG. 26): significant reduction in tactile allodynia
reversal of SNL tactile allodynia, fasted animals, subsequent administrations ([5]; rat, 50 mg/kg p.o., 48 hrs later, FIG. 24): failed to produce a statistically significant effect
reversal of SNL tactile allodynia, non-fasted animals ([5]; rat, 10 and 50 mg/kg p.o., any time point after any of three administrations, FIG. 23): did not produce a statistically significant difference from vehicle treated animals
Tmax [6]: 1 h
Paw withdrawal latency ([7]; compound 2 10 mg/kg p.o. preemptive (15 minutes prior to carrageenan), baseline prior to carrageenan (first line), 10 mg/kg): 20.94 s and 40 s and 25.09 s and 26.96 s and 13.66 s and 23.25 s
Paw withdrawal latency ([7]; compound 2 10 mg/kg p.o. preemptive, 4 hours post carrageenan (second line), 10 mg/kg): 8.1 s and 5.07 s and 20.71 s and 12.18 s and 11.94 s and 9.38 s
Paw withdrawal latency ([7]; compound 2 30 mg/kg p.o. preemptive, 4 hours post carrageenan (second line), 30 mg/kg): 11.57 s and 16.63 s and 6.81 s and 11 s and 32.38 s and 11.6 s
Paw withdrawal latency ([7]; compound 2 30 mg/kg p.o. preemptive, baseline prior to carrageenan (first line), 30 mg/kg): 27.75 s and 15.78 s and 35.57 s and 23.26 s and 18.37 s and 25.78 s
carrageenan-induced thermal hyperalgesia, preemptive (finding in words) ([7]; rat, 10 and 30 mg/kg p.o. 15 minutes prior to carrageenan): did not significantly prevent
